Reference: publication PMC5502055, “Phase II study of lanreotide autogel in Japanese patients with unresectable or metastatic well-differentiated neuroendocrine tumors” (Investigational New Drugs, 2017)

Columns and labels:
Type in all cases: in vivo, human
[1] = system: Japanese patients with grade (G) 1/G2 NET; experiment: Quality of life, EORTC QLQ-C30 (ver. 3.0); settings: EORTC QLQ-C30, individual terms
Source text: The primary endpoint was the clinical benefit rate (CBR) at 24 weeks after the first injection, which served to indicate and confirm the anti-tumor effects of lanreotide. The CBR was defined as the percentage of patients in the analysis set who achieved a complete response or partial response (PR) as the best overall response, or those who maintained stable disease (SD) over 24 weeks after the first injection by central review. Secondary efficacy endpoints were progression-free survival (PFS), overall survival (OS), objective response rate (ORR), and the percent change from baseline in the sum of the diameters of target lesion from baseline. […] Regarding tumor lesion imaging ≥4 weeks before the baseline, the investigators evaluated computed tomography (CT) or magnetic resonance imaging (MRI) data based on the RECIST (ver. 1.1). To evaluate anti-tumor effects after baseline, CT or MRI data were evaluated centrally by an independent third party based on the RECIST (ver. 1.1). During the study period, images of each patient were determined using the same method (CT or MRI), according to the standardized procedure at each site. […]
In the primary analysis, the CBR point estimate at 24 weeks after the first injection and an exact F distribution-based 95% confidence interval (CI) were calculated. […] The ORRs at 24, 48, and 60 weeks after the first injection were also calculated. […]

[2] = Serum anti-lanreotide antibody test (radioimmunoprecipitation assay)
Protocol: For the safety evaluation, adverse events (AEs) were recorded after the first injection until the point of data cutoff (December 2015) in the extension study. AE severity was assessed according to the National Cancer Institute Common Terminology Criteria for Adverse Events (NCI-CTCAE) ver. 4.0. Gallbladder echography and blood evaluations, including serum anti-lanreotide antibody tests were performed every 12 weeks during the 48 -week period after the first injection, and every 24 weeks thereafter.
Serum anti-lanreotide antibody levels were determined every 4 weeks for the 24-weeks period following the start of administration, and every 12 weeks thereafter for the 48-weeks. Serum anti-lanreotide antibody levels were centrally determined using a validated radioimmunoprecipitation assay (RIPA; SGS Cephac, Saint-Benoît, France). Anti-lanreotide antibody-positivity was evaluated in two stages: screening test and confirmation test. Antibody titers were determined for samples found to be positive in the confirmation test.

serum CgA = experiment: Serum chromogranin A (CgA) concentration; settings: 15 of 17 patients with baseline CgA >100 ng/mL
Protocol: Serum CgA, serum anti-lanreotide antibody, and serum lanreotide testing methods are described in the Electronic Supplementary Material.
In the primary analysis, the CBR point estimate at 24 weeks after the first injection and an exact F distribution-based 95% confidence interval (CI) were calculated. The CBR was selected as the primary endpoint, because maintaining SD was deemed beneficial and clinically meaningful for NET patients. In the secondary analysis, Kaplan–Meier curves of PFS and OS were prepared, and median values and 95% CIs were calculated. The ORRs at 24, 48, and 60 weeks after the first injection were also calculated. Regarding percent changes from baseline in the sum of the diameters of target lesion, descriptive statistics were calculated for each evaluation time point, and waterfall plots of the best response and last evaluation time points were prepared. Regarding the serum CgA concentration and QOL evaluation, descriptive statistics of changes from baseline were calculated for each time point. For all endpoints, the starting point of evaluation was set as the baseline for the phase II study.
Serum chromogranin A concentrations were determined centrally every 12 weeks for the 48-weeks period following the start of administration, and every 24 weeks thereafter (SRL Medisearch Inc.,Tokyo,Japan, Kit Cisbio).

For `CC(C)[C@@H]1NC(=O)[C@H](CCCCN)NC(=O)[C@@H](Cc2c[nH]c3ccccc23)NC(=O)[C@H](Cc2ccc(O)cc2)NC(=O)[C@@H](NC(=O)[C@H](N)Cc2ccc3ccccc3c2)CSSC[C@@H](C(=O)N[C@H](C(N)=O)[C@@H](C)O)NC1=O` [lanreotide], the “QOL transformed scores versus baseline” value [1] was “did not differ significantly”, the “patients positive for anti-lanreotide antibodies” value ([2]; 2 patients, RIPA) was 6.3% and the Anti-lanreotide antibody test ([2]; Patient A, Baseline) was “Negative”. For the same compound, the Anti-lanreotide antibody test ([2]; Patient A, Week 4) was “Negative”, the Anti-lanreotide antibody test ([2]; Patient A, Week 8) was “Negative” and the Anti-lanreotide antibody test ([2]; Patient A, Week 12) was “Negative”. The Anti-lanreotide antibody test ([2]; Patient A, Week 16) was “Positive”, the Antibody titer ([2]; Patient A, Week 16) was 1/1 and the Anti-lanreotide antibody test ([2]; Patient A, Week 20) was “Negative”. The Anti-lanreotide antibody test ([2]; Patient A, Week 24) was “Negative”, the Anti-lanreotide antibody test ([2]; Patient A, Week 36) was “Positive” and the Antibody titer ([2]; Patient A, Week 36) was 1/2. The Anti-lanreotide antibody test ([2]; Patient B, Baseline) was “Negative”, the Anti-lanreotide antibody test ([2]; Patient B, Week 4) was “Negative” and the Anti-lanreotide antibody test ([2]; Patient B, Week 8) was “Positive”. For the same compound, the Antibody titer ([2]; Patient B, Week 8) was 1/4, the Anti-lanreotide antibody test ([2]; Patient B, Week 12) was “Positive” and the Antibody titer ([2]; Patient B, Week 12) was 1/32. The Anti-lanreotide antibody test ([2]; Patient B, Week 16) was “Positive”, the Antibody titer ([2]; Patient B, Week 16) was 1/32 and the Anti-lanreotide antibody test ([2]; Patient B, Week 20) was “Positive”. The Antibody titer ([2]; Patient B, Week 20) was 1/64, the Anti-lanreotide antibody test ([2]; Patient B, Week 24) was “Positive” and the Antibody titer ([2]; Patient B, Week 24) was 1/64. The Anti-lanreotide antibody test ([2]; Patient B, Week 36) was “Positive”, the Antibody titer ([2]; Patient B, Week 36) was 1/256 and the Anti-lanreotide antibody test ([2]; Patient B, Week 48) was “Positive”. For the same compound, the Antibody titer ([2]; Patient B, Week 48) was 1/512 and the “patients with serum CgA decrease of ≥50% by last examination relative to baseline” value (serum CgA) was 88.2%.
